Read-outs that look alike come from different tables or passages of the source.
Legend:
[1] = tested on: rat glial cells C6; assay: Protection from necrosis induced by maitotoxin, C6 (wst-1 viability); type: cell-based
Protocol: (§1) Human neuroblastomas SHSY5Y and rat glial cells C6 are seeded at 25 000 cells per well in 96-well plates in DMEM 10% FBS for 24 hours. The L6 rat myoblasts are seeded at 1000 cells per well in DMEM 10% FBS on 96-well microplates coated beforehand with gelatin 0.5% PBS. After culture for 3 days the medium is removed and replaced with a differentiation medium (DMEM+10 μg/ml of insulin+100 μg/ml of transferrin). 50 μl of product A plus 50 μl of solvent or 50 μl of product B are placed in the wells. After incubation for 1 hour at 37° C. under an atmosphere of 5% CO2, 10 μl of maitotoxin is added in order to obtain a final concentration of 0.1 nM to 1 nM (according to the cell type). After incubation for 3 hours at 37° C. under an atmosphere of 5% CO2, the cell viability is determined by adding 10 μl of tetrazolium salts (wst-1, Roche, ref: 1644807). The tetrazolium salts are cleaved into formazan molecules by mitochondrial dehydrogenases. The quantity of formazan formed is directly correlated to the number of metabolically active cells in the culture. Measurement of the absorbance of the formazan is carried out using a multiwell photometer at a wavelength of 420 nm against a reference wavelength of 620 nm.
(§2) The theoretical effect was obtained by multiplying the percentage of dead cells in the presence of product A by the percentage of dead cells in the presence of product B (Table 3). The percentage protection against cell death induced by MTX being the percentage of cells kept alive in the presence of the product or products.
In the light of the previous results, the combination of Example 1 with product A and product B at a rate of 100 μM of each of the products is carried out on human neuroblastomas (SHSY5Y; (Table 5A) and on glial cells with 25 μM of product A and 50 μM of product B (C6; Table 5B) on a larger number of cases.

[2] = tested on: lipidic peroxidation of rat cerebral cortex homogenate; assay: In vitro lipidic peroxidation (Fenton reaction, MDA) in rat cerebral cortex membranes; type: biochemical; settings: iron/ascorbate, read-out: Inhibition of lipidic peroxidation [IC50 (μM)]
Protocol: The test consists of inducing lipidic peroxidation by Fenton reactions in the presence of iron and ascorbate. The degree of lipidic peroxidation is determined by the concentration of malonaldehyde (MDA). The MDA produced by the lipidic peroxidation of unsaturated fatty acids is a good indicator of lipidic peroxidation (Esterbauer et al, 1990; Meth. Enzymol. 186: 407421). For this colorimetric test, the condensation of a molecule of MDA with two molecules of chromogenic reagent R (N-methyl-2-phenylindole) produces a stable chromophore the maximum absorbance wavelength of which is equal to […].
The membranes are prepared from the cortexes of male Sprague Dawley rats weighing 200 to 250 g. The animals are sacrificed by decapitation and the brains are immediately removed and rinsed in cold Tris HCl 20 mM pH 7.4. The cortexes, after dissection and removal of the white matter, are then ground with the Thomas potter, in Tris HCl buffer 20 mM pH 7.4 at 4° C. The homogenate obtained is centrifuged at low speed in order to eliminate the large debris (515 g for 15 minutes at 4° C.). The supernatant is then distributed into polycarbonate centrifugation tubes and centrifuged at 51500 g for 25 min at 4° C. The membrane pellets are kept at −80° C.
On the day of the experiment, the frozen membranes are resuspended at a concentration of 0.5 equivalent grams of cortex per 5 ml of Tris HCl buffer 20 mM pH 7.4 and homogeneized using a combitips. In 96-well “deep-well” 1 ml polypropylene plates with a conical base, 5 μl per well of the product to be tested or of solvent is mixed with 40 μl of rat cerebral cortex homogenate by centrifugation (800 rpm). The plates are covered with a self-adhesive aluminium sheet and incubated at 37° C. for 15 minutes under agitation. […]
The membranes and the supernatants are separated by filtration under vacuum on a 96-well plate with a multiscreen filtering base NA (Millipore, ref: MANANLY 50). The absorbance of the supernatants recovered in the 96-well plates is read using a photometer.

[3] = tested on: human neuroblastomas SHSY5Y; assay: Protection from necrosis induced by maitotoxin, SHSY5Y (wst-1 viability); type: cell-based; settings: for Protection from necrosis induced by MTX: SHSY5Y, n=2, 0.1 nM maitotoxin; for Protection from necrosis induced by MTX on SHSY5Y: n = 8, single product at 100 μM
Protocol: as §1, §2
In a first series of experiments, the concentration of product A in Example 1 is fixed (100 μM), product B is added at concentrations varying from zero to 100 μM (Table 4A). In a second series of experiments, product B of Example 1 is fixed at 100 μM, product A is added at concentrations varying from zero to 100 μM (Table 4B).

[4] = tested on: 8-isoPG1F2α level in rat glial cells C6; assay: In situ isoprostane level (8-isoPG1F2α) in C6 cells treated with maitotoxin; type: cell-based; settings: 3 h, read-out: Inhibition of the isoprostane count in situ (C6) [IC50 (μM)]
Protocol: 8-isoPG1F2α is part of a family of compounds the first synthesis stage of which (peroxidation of arachidonic acid) is carried out in a non-enzymatic manner in the presence of free radicals (Morrow and coll, 1990). Measurement of the 8-iso PGF2α level is considered as a reliable marker of the oxidation stress.
The rat glial cells C6 were seeded at 25 000 cells per well in 96-well plates in DMEM 10% FBS. The next day, 100 μl of product A was placed in the wells. After incubation for 1 hour at 37° C. under an atmosphere of 5% CO2, 10 μl containing maitotoxin is added in order to obtain a final concentration in the well of 1 nM. After incubation for 3 hours, the supernatants are removed and frozen at −20° C. The 8-isoPG1F2α level is measured using a specific EIA dosage kit (Cayman chemical, ref: 516351).

[5] = tested on: L6 Myoblasts differentiated to myotubes (rat skeletal muscle cells); assay: Protection from necrosis induced by maitotoxin, L6 myoblasts differentiated to myotubes; type: cell-based; settings: single product at 100 μM
Protocol: as §1
The theoretical effect was obtained by multiplying the percentage of dead cells in the presence of product A by the percentage of dead cells in the presence of product B (Table 3). […]

[6] = molecular target: T1, human calpain I (Homo sapiens, UniProt P07384); assay: Effects on human calpain I (acellular, Suc-Leu-Tyr-AMC fluorescence); type: biochemical; settings: enzyme purified from human erythrocytes; 1 h at 25°C; read-out: Inhibition human calpain I, acellular [IC50 (nM)]
T1 construct: enzyme purified from human erythrocytes; purchased Calbiochem 208713; host or cells: human erythrocytes (native tissue source)
T1 sequence (P07384 1-714): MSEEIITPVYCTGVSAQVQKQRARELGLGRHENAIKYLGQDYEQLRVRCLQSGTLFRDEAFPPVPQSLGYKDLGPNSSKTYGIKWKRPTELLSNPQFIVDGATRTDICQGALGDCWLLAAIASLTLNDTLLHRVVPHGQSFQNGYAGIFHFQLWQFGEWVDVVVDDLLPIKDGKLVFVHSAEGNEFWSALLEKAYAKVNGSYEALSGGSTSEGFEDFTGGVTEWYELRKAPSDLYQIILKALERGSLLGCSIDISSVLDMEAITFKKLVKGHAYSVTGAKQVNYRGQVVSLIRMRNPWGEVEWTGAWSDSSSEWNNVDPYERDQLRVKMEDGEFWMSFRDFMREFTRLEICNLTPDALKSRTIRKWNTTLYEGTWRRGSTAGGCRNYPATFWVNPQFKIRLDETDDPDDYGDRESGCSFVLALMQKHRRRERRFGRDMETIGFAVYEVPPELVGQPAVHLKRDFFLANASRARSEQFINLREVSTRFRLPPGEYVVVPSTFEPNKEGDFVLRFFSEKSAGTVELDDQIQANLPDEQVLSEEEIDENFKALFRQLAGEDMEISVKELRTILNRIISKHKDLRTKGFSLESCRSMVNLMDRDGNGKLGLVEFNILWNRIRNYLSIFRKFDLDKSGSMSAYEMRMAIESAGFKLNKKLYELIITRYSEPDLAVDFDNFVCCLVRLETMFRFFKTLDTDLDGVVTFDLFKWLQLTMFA
T1 sequence (P04632 1-268 partner): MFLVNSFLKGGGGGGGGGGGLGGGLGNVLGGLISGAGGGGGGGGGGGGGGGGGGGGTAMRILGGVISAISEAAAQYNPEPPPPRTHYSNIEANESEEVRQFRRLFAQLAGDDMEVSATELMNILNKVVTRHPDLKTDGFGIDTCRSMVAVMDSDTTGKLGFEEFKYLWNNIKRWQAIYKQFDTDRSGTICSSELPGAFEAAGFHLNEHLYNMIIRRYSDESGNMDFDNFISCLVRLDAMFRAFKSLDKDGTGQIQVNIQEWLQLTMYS
Protocol: The test consists of measuring the activity of the enzyme (enzyme purified from human erythrocytes) which is incubated in a buffer in the presence of a peptide substrate coupled with a fluorochrome (amino-methylcourmarin, AMC) and calcium. The enzyme activated by the calcium, proteolyses the substrate and releases the AMC fragment. The AMC released fluoresces at 460 nm under excitation at 380 nm. The activity of the enzyme is therefore proportional to the quantity of fluorescence i.e. of free AMC fragment. The fluorescence (380/460 nm) is measured using a multi-well fluorimeter (Victor 2, Wallac).
Assay is carried out in 96-well microplates with transparent bottoms and black walls in which 10 μl per well of substance to be tested in DMSO 10%, 45 μl of reaction mixture containing the human calpain I at 2.2 U/ml (Calbiochem, ref: 208713), the Suc Leu Tyr-AMC substrate (Bachem, ref: I-1355) at 1.1 mM in a buffer (Tris-HCl 110 mM; NaCl 110 mM; EDTA 2.2 mM; EGTA 2.2 mM; mercaptoethanol 1.1 mM) are distributed. The reaction is initiated by adding 45 μl of CaCl2 22mM. To determine the background noise, control wells without calcium are added to the plate (10 μL DMSO 10%+45 μL of buffer with the enzyme and the susbtrate +45 μL H2O). In order to determine the total activity of the enzyme control wells containing no product are added to the plate (10 μL DMSO 10%+45 μL of buffer with the enzyme and the substrate +45 μL of CaCl2 22 mM ). Each concentration of the products (0.1 nM to 10 μM) is tested in duplicate. The plates are shaken and incubation takes place for one hour at 25° C. in darkness. The fluorescence is read at 380/460 nm using the Victor.

[7] = single product at 50 μM, n = 3 for Example 2, else n = 1
[8] = single product at 100 μM, n = 1

Row | SMILES | Protection from necrosis induced by MTX on C6 ([1]; single product at 25 μM) [%] | Protection from necrosis induced by MTX on C6 ([1]; single product at 25 μM, listed as 3-5-di-tert-butyl-4-hydroxybenzoic acid) [%] | Protection from necrosis induced by MTX on C6 ([1]; single product at 25 μM, listed as EXAMPLE 4 A) [%] | Protection from necrosis induced by MTX on C6 [1, 7] [%] | Protection from necrosis induced by MTX on C6 [1, 8] [%] | IC50 [2] [µM] | Protection from necrosis induced by MTX ([3]; single compound at 12.5 μM) [%] | Protection from necrosis induced by MTX ([3]; single compound at 25 μM) [%] | Protection from necrosis induced by MTX ([3]; single compound at 50 μM) [%] | Protection from necrosis induced by MTX ([3]; single compound at 100 μM) [%] | Protection from necrosis induced by MTX on SHSY5Y [3] [%] | Protection from necrosis induced by MTX on SHSY5Y ([3]; listed as 3,5-di-tert-butyl-4-hydroxybenzoic acid) | IC50 ([4]; n = 3, maitotoxin 1 nM) [µM] | Protection from necrosis induced by MTX on C6 ([1]; single product at 50 μM, n = 3 for Example 2, else n = 1, listed as 2-methoxy-10H-phenothiazine) | Protection from necrosis induced by MTX on L6 Myoblasts differentiated to myotubes [5] [%] | IC50 ([4]; Rattus norvegicus, Glial cell) [µM] | IC50 [6] [nM]
1 | CC(C)(C)c1cc(C(=O)O)cc(C(C)(C)C)c1O [EXAMPLE 1 A, 3-5-di-tert-butyl-4-hydroxybenzoic acid] | 21.23 | ~20 | 16.17 | 12.51 | 30.84 | 3.7 | 5.18 ± 1.81 | 7.45 ± 1.65 | 8.87 ± 0.34 | 8.68 ± 0.3 | 19.48 ± 5.20 | less than 20% | 101 | – | – | – | –
2 | COc1ccc2c(c1)Nc1ccccc1S2 [EXAMPLE 2 A, 2-methoxy-10H-phenothiazine] | – | – | – | 6.56 ± 1.6 | 10.45 | 0.19 | – | – | – | – | – | – | – | inactive | 10.94 | 0.4 | –
3 | CCCC[C@@H](C=O)NC(=O)[C@H](CC(C)C)NC(=O)OCc1ccccc1 [EXAMPLE 3 B] | – | – | – | 13.03 | 0.84 | – | – | – | – | – | – | – | – | – | 5.09 | – | 2.8
